{
  "source": "paper PMC10804372",
  "about": "“Degradation by Design: New Cyclin K Degraders from Old CDK Inhibitors” (ACS Chemical Biology, 2024)",
  "key": {"Cyclin K [1]": {"tested_on": "Cyclin K", "assay": "Cyclin K levels by Western blot after single-concentration treatment", "assay_type": "cell-based, human", "conditions": "HEK293T cells, 1 μM for 2 h, quantified from Western blots, mean ± SD, three independent experiments", "method": "(§1) HEK293T human […] kidney cells were cultured in DMEM (Gibco/Life Technologies), containing 25 mM D-glucose, 4 mM L-glutamine, and 1 mM sodium pyruvate, and supplemented with 10% (v/v) FBS and 1% nonessential amino acids (Gibco/Life Technologies). Cells were incubated at 37 °C in a humidified atmosphere with 5% CO2.\n(§2) Cells were washed with PBS and lysed (20 mM HEPES pH 7.5, 10% glycerol, 0.4 M KCl, 0.4% Triton X-100, 15 mM EDTA, and 1× protease and phosphatase inhibitors). The insoluble fraction was removed by centrifugation. Protein quantification was performed using a Bradford assay and compared to a BSA calibration curve. Equal amounts of lysates were run on SDS–PAGE 4–12% Bis–Tris Protein Gels (NuPAGE, Thermo Fisher Scientific) and then transferred onto Immobilon-P PVDF Membrane (Millipore, IPVH00010) using a Mini Trans-Blot Cell (Bio-Rad, 1703930). The membranes were blocked with 5% bovine albumin serum (BSA) in Tris-buffered saline with Tween 20 (TBS-T) and incubated with primary antibodies overnight at 4 °C. The membranes were washed three times with TBS-T and incubated with HRP-conjugated secondary antibody (BioRad) for 2 h. Membranes were washed again three times with TBS-T before being developed using Pierce ECL Western Blotting Substrate (Thermo, 32106) and visualized using LI-COR. Antibodies were purchased from Cell Signaling Technology: anti-GAPDH (D4C6R) and anti-DDB1 (D4C8) or Bethyl Laboratories: anti-Cyclin K (A301-939A). The following HRP-linked secondary antibodies were used by dilution in 5% BSA/TBS-T: antirabbit IgG (BioRad, 5213–2504) and antimouse IgG (BioRad, 103005).\n(§3) Unedited blots containing the marker lane are available on request. Western blots were quantified using ImageJ. Cyclin K levels were normalized using GAPDH as a loading control. DC50 values were calculated from concentration–response curves using nonlinear regression fit to a 4-parameter curve by GraphPad Prism."}, "Cyclin K [2]": {"tested_on": "Cyclin K", "assay": "Cyclin K degradation concentration-response (DC50, DMax) by Western blot", "assay_type": "cell-based, human", "conditions": "HEK293T, Western blot quantification, 3 biological repeats", "method": "With the aim of comparing the degradation ability of the new analogues, we derived DC50 values by using Western blotting (Table 5). […] This approach has been previously used to improve the potency of BCL6 degraders.[33] We therefore also measured CDK12 affinity using the KINOMEscan binding assay (Table 5).[34]\nas §1, §2, §3"}, "PAMPA permeability": {"assay": "PAMPA permeability", "assay_type": "in vitro ADME", "conditions": "pH 7.4; PAMPA, pH7.4; read-out: pH7.4 Papp x 10^-6"}, "CDK12 / DDB1": {"tested_on": "CDK12 / DDB1", "set-up": "method as in PMID 32494016", "conditions": "in vitro; cited from earlier work"}, "[3]": {"set-up": "method as in PMID 32494016", "conditions": "after 5 h of treatment; cited from earlier work"}},
  "data": [
    {"smiles": "CC[C@H](CO)Nc1nc(NCc2ccc(-c3ccccn3)cc2)c2ncn(C(C)C)c2n1", "note": "[compound 1, reference compound]", "values": [
      {"measurement": "Remaining Cyclin K (%)", "setting": "Cyclin K [1]", "value": "1 ± 1", "unit": "%"},
      {"measurement": "DMax (%)", "setting": "Cyclin K [2]", "value": "[…]"},
      {"measurement": "DC50", "setting": "Cyclin K [2]; read-out: CycK DC50", "value": "[…]"},
      {"measurement": "Papp", "setting": "PAMPA permeability", "value": 45.4, "unit": "×10⁻⁶ cm/s"},
      {"measurement": "stabilization of the CDK12-DDB1 interaction compared to apo-form", "setting": "CDK12 / DDB1", "value": 1000, "unit": "fold"},
      {"measurement": "number of other proteins depleted by at least twofold", "setting": "[3]", "value": "[…]"}
    ]}
  ]
}
